{"source": "ChEMBL document CHEMBL1201862", "about": "“PubChem BioAssay data set” (2004)", "key": {"[1]": {"target": "Peroxisome proliferator-activated receptor gamma/Nuclear receptor coactivator 1 (Homo sapiens, UniProt P37231)", "sequence (P37231 whole entry)": "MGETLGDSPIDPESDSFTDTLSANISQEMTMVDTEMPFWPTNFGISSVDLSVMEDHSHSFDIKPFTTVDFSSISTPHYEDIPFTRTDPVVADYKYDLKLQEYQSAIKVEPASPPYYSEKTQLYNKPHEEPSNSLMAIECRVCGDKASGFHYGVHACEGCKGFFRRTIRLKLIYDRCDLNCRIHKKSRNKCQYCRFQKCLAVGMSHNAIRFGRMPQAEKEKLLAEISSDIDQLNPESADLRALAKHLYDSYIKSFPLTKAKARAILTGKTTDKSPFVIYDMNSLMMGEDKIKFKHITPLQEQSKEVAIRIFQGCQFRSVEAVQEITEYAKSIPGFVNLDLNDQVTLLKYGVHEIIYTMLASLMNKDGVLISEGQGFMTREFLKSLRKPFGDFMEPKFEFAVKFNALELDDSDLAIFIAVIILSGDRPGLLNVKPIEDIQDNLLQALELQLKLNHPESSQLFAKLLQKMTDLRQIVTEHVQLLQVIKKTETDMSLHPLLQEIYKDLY", "sequence (Q15788 whole entry, further chain)": "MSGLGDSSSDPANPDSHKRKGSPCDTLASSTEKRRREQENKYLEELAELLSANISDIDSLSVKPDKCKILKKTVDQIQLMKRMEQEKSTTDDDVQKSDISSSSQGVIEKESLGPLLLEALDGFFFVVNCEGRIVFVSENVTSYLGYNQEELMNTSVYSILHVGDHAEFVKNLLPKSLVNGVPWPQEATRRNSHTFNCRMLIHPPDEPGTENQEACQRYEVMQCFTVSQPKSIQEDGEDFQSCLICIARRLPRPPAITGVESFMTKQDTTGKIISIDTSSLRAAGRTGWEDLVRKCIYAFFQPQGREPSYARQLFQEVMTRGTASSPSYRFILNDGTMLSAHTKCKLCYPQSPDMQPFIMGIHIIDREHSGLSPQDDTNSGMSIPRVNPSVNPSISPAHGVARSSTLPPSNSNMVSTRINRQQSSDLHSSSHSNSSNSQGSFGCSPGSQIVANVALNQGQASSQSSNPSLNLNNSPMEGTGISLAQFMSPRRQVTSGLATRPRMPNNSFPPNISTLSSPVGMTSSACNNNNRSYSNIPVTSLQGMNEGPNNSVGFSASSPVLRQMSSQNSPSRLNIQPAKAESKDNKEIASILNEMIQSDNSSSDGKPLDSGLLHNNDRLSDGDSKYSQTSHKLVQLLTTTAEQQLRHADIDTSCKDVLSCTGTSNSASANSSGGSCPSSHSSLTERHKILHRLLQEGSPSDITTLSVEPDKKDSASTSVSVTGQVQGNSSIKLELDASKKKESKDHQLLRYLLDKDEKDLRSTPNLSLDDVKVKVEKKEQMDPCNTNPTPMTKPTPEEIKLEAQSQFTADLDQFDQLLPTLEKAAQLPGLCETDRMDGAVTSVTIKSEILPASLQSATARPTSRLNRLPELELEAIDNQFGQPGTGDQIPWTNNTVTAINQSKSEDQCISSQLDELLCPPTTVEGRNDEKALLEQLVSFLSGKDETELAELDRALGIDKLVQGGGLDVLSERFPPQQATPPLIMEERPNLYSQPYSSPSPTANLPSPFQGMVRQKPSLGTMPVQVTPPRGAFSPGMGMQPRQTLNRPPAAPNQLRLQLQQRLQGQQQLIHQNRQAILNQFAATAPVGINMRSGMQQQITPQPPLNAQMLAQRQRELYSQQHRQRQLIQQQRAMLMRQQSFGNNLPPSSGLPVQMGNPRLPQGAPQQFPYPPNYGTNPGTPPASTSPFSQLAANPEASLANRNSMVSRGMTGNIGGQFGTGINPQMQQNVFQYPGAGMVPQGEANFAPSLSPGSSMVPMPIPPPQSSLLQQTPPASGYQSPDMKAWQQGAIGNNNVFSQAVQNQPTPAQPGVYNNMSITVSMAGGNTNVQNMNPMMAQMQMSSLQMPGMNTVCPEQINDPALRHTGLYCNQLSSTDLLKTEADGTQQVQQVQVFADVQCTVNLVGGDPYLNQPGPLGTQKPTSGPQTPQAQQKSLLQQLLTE", "format": "functional"}, "[2]": {"target": "Peroxisome proliferator-activated receptor gamma/Nuclear receptor coactivator 2 (Homo sapiens, UniProt P37231)", "format": "functional"}, "[3]": {"target": "Peroxisome proliferator-activated receptor gamma/Nuclear receptor coactivator 3 (Homo sapiens, UniProt P37231)", "sequence (P37231 whole entry)": "as the sequence (P37231 whole entry) above", "sequence (Q9Y6Q9 whole entry, further chain)": "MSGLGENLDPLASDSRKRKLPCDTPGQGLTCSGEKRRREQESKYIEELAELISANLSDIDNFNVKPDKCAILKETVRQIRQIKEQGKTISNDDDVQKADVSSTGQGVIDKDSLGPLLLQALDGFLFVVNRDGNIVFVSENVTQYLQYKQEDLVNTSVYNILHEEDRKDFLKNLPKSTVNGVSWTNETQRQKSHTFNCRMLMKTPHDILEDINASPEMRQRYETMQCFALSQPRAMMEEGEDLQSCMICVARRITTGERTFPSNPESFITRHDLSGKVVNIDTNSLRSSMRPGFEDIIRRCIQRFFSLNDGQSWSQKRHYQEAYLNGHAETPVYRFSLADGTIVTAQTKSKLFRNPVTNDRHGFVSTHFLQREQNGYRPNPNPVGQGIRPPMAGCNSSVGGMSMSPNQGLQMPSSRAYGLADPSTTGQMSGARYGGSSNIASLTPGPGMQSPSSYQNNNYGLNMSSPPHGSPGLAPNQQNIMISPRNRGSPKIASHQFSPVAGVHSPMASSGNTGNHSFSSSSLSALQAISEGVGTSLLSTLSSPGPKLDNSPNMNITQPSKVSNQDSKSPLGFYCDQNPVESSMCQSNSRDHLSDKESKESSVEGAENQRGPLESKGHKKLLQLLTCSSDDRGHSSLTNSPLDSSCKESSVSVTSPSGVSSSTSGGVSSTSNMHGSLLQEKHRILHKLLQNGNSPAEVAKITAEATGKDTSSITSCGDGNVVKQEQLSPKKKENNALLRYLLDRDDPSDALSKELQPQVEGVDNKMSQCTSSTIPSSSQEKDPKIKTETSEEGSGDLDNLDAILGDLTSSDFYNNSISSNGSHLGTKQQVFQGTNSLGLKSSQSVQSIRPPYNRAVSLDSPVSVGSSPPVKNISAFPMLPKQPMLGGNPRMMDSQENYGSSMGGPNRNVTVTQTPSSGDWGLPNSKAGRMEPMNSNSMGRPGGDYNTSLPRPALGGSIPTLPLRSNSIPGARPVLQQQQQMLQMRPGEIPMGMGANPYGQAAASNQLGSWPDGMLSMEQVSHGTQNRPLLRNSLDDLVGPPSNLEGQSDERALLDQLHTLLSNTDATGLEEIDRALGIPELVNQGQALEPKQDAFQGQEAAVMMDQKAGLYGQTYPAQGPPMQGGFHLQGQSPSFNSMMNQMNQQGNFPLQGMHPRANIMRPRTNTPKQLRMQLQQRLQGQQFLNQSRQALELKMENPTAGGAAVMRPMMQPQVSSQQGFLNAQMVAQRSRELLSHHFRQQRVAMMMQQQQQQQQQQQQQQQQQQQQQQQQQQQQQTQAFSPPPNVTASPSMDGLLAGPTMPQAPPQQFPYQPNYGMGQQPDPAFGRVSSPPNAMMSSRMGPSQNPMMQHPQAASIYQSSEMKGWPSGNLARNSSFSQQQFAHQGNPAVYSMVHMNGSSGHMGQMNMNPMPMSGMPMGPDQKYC", "format": "functional"}, "HeLa": {"test_system": "HeLa", "test": "viability loss in HeLa cells – cell-based, 24 h, cherry-picked samples, cytotoxicity control, dose response (AID 504726)", "format": "functional", "conditions": "Homo sapiens"}, "[4]": {"target": "T1, Zinc finger protein mex-5 (Caenorhabditis elegans, UniProt Q9XUB2)", "T1 sequence (Q9XUB2 whole entry)": "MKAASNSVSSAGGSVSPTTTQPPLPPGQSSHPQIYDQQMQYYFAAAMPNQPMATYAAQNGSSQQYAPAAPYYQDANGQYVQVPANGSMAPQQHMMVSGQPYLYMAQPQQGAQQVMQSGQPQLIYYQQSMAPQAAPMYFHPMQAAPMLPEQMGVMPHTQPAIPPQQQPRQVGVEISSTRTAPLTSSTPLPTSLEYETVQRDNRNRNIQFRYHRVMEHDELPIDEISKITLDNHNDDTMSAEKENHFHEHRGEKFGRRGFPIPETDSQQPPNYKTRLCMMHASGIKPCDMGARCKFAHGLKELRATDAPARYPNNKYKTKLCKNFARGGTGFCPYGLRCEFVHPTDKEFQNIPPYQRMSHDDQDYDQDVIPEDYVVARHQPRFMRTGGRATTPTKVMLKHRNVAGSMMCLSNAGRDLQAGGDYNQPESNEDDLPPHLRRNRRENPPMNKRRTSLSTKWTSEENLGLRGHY", "test": "potency of MEX-5 RNA-binding blockers – biochemical, C. elegans, fluorescence polarization, dose response (AID 1960)"}, "[5]": {"target": "G-protein coupled receptor 55 (Homo sapiens, UniProt Q9Y2T6)", "sequence (Q9Y2T6 whole entry)": "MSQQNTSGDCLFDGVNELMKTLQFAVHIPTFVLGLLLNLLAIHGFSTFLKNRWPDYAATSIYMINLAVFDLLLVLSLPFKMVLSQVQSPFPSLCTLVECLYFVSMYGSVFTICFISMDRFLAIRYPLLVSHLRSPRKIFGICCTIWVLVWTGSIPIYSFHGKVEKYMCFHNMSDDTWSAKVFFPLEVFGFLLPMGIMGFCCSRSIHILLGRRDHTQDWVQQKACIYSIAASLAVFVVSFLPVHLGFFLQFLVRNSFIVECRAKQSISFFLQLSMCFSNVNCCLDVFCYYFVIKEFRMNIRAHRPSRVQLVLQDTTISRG", "test": "inhibition of LPI-stimulated GPR55 beta-arrestin translocation – imaging, U2OS, beta-arrestin-GFP, LPI agonist, primary screen (AID 2013);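 also: antagonist potency measured as reduced agonist-driven arrestin aggregation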", "format": "functional"}, "[6]": {"target": "T2, RNA-binding protein pos-1 (Caenorhabditis elegans, UniProt G5EF15)", "T2 sequence (G5EF15 whole entry)": "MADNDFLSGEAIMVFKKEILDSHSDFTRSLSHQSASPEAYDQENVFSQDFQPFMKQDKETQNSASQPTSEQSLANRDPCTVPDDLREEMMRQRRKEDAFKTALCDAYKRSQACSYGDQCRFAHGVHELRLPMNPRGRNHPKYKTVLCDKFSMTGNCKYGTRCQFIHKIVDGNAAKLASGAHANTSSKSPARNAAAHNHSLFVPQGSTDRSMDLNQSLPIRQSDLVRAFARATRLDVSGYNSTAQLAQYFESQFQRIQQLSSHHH", "test": "disruptors of C. elegans POS-1 RNA interaction – biochemical, fluorescence polarization, dose response (AID 1964);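 also: purified POS-1 fused to maltose binding protein made in E. coli; potency of compounds blocking POS-1 binding to fluorescent RNA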"}, "Ion channel NompC": {"target": "Ion channel NompC (Danio rerio, UniProt Q7T1G6)", "test": "Fluorescence counterscreen assay for TRPML3 agonists: dose response cell-based high-throughput screening assay to identify agonists of the transient receptor potential channel N1 (TRPN1). [Related pubchem assays: 1526, 1424, 1448 ]", "format": "functional"}, "Mucolipin-3": {"target": "T3, Mucolipin-3 (Homo sapiens, UniProt Q8TDD5)", "T3 sequence (Q8TDD5 whole entry)": "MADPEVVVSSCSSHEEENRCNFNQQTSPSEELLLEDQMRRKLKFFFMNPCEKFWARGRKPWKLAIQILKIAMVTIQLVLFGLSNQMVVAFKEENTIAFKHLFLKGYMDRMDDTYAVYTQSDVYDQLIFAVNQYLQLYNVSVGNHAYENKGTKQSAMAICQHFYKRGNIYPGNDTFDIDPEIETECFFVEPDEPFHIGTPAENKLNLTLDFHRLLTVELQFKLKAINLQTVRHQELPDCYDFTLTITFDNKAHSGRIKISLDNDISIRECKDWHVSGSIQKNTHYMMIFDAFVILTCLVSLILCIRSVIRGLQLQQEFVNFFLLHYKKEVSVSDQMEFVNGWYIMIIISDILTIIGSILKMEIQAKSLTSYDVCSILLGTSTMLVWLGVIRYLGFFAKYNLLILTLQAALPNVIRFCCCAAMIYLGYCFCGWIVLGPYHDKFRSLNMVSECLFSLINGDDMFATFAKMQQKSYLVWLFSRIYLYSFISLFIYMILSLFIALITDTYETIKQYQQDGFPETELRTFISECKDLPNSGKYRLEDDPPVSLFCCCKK", "test": "Dose response cell-based high-throughput screening assay for agonists of the transient receptor potential channel ML3 (TRPML3). [Related pubchem assays: 1526, 1424, 1448 ]", "format": "functional"}, "[7]": {"target": "T4, Heat shock factor protein 1 (Mus musculus, UniProt P38532)", "T4 sequence (P38532 whole entry)": "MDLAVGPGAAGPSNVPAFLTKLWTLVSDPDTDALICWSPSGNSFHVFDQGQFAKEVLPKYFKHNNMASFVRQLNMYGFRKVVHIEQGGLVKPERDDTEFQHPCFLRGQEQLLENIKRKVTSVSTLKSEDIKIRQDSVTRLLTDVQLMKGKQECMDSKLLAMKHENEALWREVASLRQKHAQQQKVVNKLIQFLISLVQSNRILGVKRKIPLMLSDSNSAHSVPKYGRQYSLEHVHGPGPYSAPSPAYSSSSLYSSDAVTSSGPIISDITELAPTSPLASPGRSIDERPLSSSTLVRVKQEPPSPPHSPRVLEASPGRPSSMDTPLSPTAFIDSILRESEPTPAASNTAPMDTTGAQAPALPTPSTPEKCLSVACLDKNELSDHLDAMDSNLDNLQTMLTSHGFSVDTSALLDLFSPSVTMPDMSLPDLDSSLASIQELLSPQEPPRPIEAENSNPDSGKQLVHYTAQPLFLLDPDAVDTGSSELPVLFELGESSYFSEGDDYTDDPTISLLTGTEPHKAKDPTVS", "test": "decrease of HSF1-responsive luciferase luminescence – cell-based, NIH3T3, dose retest, confirmation (AID 2382);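 also: NIH3T3 fibroblasts with HSF1-driven luciferase reporter stressed by proteasome inhibitor MG132; luminescence from HSF1-driven luciferase expression after 8 hours of MG132 stress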", "format": "functional"}, "Leucine aminopeptidase": {"target": "T5, Leucine aminopeptidase (Plasmodium falciparum 3D7, UniProt Q8IL11)", "T5 sequence (Q8IL11 whole entry)": "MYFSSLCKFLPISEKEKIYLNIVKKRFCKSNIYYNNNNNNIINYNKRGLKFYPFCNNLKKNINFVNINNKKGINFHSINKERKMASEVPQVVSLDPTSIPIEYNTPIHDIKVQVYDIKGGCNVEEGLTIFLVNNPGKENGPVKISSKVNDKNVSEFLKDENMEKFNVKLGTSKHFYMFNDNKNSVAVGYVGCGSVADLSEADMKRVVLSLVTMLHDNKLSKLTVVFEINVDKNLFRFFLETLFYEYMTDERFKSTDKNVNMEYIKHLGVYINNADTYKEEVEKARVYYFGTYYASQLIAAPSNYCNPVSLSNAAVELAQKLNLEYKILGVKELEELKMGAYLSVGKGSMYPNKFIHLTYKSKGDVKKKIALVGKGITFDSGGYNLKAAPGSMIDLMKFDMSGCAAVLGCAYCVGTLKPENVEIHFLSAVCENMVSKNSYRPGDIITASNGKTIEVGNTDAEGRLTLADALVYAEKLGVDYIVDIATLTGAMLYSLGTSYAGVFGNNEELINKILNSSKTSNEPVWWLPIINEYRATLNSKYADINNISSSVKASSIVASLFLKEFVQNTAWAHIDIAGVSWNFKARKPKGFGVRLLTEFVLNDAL", "test": "P. falciparum M17LAP inhibitors, primary screen, biochemical, fluorogenic H-Leu-NHMec substrate, 1536-well (AID 1619)", "format": "functional"}, "HEK293 [8]": {"test_system": "HEK293", "test": "cells", "format": "functional, cell-based", "conditions": "Homo sapiens"}, "HEK293 [9]": {"test_system": "HEK293", "test": "cells", "format": "functional, cell-based", "conditions": "Homo sapiens", "remark": "listed apart in the source"}, "HEK293 [10]": {"test_system": "HEK293", "test": "NOD2 signaling inhibitors in MDP-stimulated cells, cell-based, uHTS, luminescence (AID 2001)", "format": "functional", "conditions": "Homo sapiens"}, "HEK293 [11]": {"test_system": "HEK293", "test": "inhibition of NOD1-driven NF-kB reporter – cell-based, luminescence, uHTS, primary screen (AID 1578)", "format": "functional", "conditions": "Homo sapiens"}, "HEK293 [12]": {"test_system": "HEK293", "test": "cells", "format": "functional, cell-based", "conditions": "Homo sapiens", "remark": "listed apart in the source"}, "[13]": {"target": "Nucleotide-binding oligomerization domain-containing protein 2 (Homo sapiens, UniProt Q9HC29)", "test": "inhibition of NOD2-driven NF-kB reporter – cell-based, luminescence, uHTS, HEK293 (AID 1566)", "format": "functional"}, "[14]": {"target": "DNA dC->dU-editing enzyme APOBEC-3A (Homo sapiens, UniProt P31941)", "sequence (P31941 whole entry)": "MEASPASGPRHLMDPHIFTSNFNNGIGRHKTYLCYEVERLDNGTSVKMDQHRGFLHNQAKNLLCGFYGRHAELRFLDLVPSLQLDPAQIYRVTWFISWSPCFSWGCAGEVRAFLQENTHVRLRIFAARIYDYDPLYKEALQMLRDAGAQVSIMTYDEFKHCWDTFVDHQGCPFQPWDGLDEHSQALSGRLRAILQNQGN", "test": "A3A deaminase inhibition for selectivity – biochemical, dose response (AID 504722)", "format": "functional"}, "[15]": {"target": "DNA dC->dU-editing enzyme APOBEC-3G (Homo sapiens, UniProt Q9HC16)", "sequence (Q9HC16 whole entry)": "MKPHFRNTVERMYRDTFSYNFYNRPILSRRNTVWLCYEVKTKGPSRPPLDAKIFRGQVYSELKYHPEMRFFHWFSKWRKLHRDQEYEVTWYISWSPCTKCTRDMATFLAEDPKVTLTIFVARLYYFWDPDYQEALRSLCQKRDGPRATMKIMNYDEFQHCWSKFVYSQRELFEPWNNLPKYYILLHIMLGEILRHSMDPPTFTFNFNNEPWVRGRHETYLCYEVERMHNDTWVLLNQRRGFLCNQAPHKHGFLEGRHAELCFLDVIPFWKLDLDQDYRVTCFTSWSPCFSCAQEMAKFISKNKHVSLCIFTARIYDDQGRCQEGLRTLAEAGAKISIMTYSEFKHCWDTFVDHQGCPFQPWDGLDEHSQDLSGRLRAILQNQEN", "test": "Dose Response confirmation of small molecule APOBEC3G DNA Deaminase Inhibitors via a fluorescence-based single-stranded DNA deaminase assay. [Related pubchem assays (depositor defined):AID493012, AID493028]", "format": "functional"}, "Large T antigen": {"target": "Large T antigen (Simian virus 40, UniProt P03070)", "format": "functional, Betapolyomavirus macacae"}}, "note": "Active and inactive are the calls of the source."}
{"smiles": "CC(C)[C@H](NC(=O)OC(C)(C)C)c1nnc(SCc2cccc(F)c2)o1", "values": [{"measurement": "EC50", "setting": "[1]", "value": "8.46 µM (active)"}, {"measurement": "EC50", "setting": "[2]", "value": "24 µM (not active)"}, {"measurement": "EC50", "setting": "[3]", "value": "16.9 µM (not active)"}]}
{"smiles": "CCOC(=O)c1c(C)n(C)c2ccc(OCCN(C)C)cc12", "values": [{"measurement": "AC50", "setting": "HeLa", "value": "> 350 µM (inactive)"}]}
{"smiles": "Cc1ccc(/C=C2/C(=O)NC(=O)N(CCc3ccc(F)cc3)C2=O)o1", "values": [{"measurement": "EC50", "setting": "[4]", "value": "290 µM (active)"}, {"measurement": "IC50", "setting": "[5]", "value": "4.5 µM (active)"}, {"measurement": "EC50", "setting": "[6]", "value": "> 300 µM (not active)"}]}
{"smiles": "CCOC(=O)C1CCN(CCC(=O)Nc2ccc(C)c(C)c2)CC1", "values": [{"measurement": "EC50", "setting": "[1]", "value": "> 79.4 µM (not active)"}, {"measurement": "EC50", "setting": "[2]", "value": "> 79.4 µM (not active)"}, {"measurement": "EC50", "setting": "[3]", "value": "> 79.4 µM (not active)"}]}
{"smiles": "CC1CC(C)CN(C(=O)c2ccc3ncsc3c2)C1", "note": "(stereo not drawn)", "values": [{"measurement": "AC50", "setting": "HeLa", "value": "95.4 µM (active)"}]}
{"smiles": "CCC1CCCCN1S(=O)(=O)c1ccc(S(=O)(=O)N(Cc2cccs2)C2CC2)cc1", "note": "(stereo not drawn)", "values": [{"measurement": "EC50", "setting": "Ion channel NompC", "value": "> 29.9 µM (not active)"}, {"measurement": "EC50", "setting": "Mucolipin-3", "value": "1.16 µM (active)"}]}
{"smiles": "Cc1ccc(S(=O)(=O)N2CCC(C)CC2)cc1[N+](=O)[O-]", "values": [{"measurement": "EC50", "setting": "Ion channel NompC", "value": "> 29.9 µM (not active)"}, {"measurement": "EC50", "setting": "[7]", "value": "> 195 µM (not active)"}, {"measurement": "EC50", "setting": "Mucolipin-3", "value": "3.51 µM (active)"}]}
{"smiles": "CC(Sc1nc2ccccc2s1)C(=O)Nc1nnc(C(C)C)s1", "note": "(stereo not drawn)", "values": [{"measurement": "EC50", "setting": "[7]", "value": "> 195 µM (not active)"}, {"measurement": "AC50", "setting": "HeLa", "value": "> 350 µM (inactive)"}, {"measurement": "IC50", "setting": "Leucine aminopeptidase", "value": "2.84 µM (active)"}]}
{"smiles": "Cc1cc(C(=O)COc2cccnc2[N+](=O)[O-])c(C)n1Cc1cccs1", "values": [{"measurement": "IC50", "setting": "HEK293 [8]", "value": "> 20 µM (inactive)"}, {"measurement": "IC50", "setting": "HEK293 [9]", "value": "> 20 µM (inactive)"}, {"measurement": "IC50", "setting": "HEK293 [10]", "value": "> 20 µM (inactive)"}, {"measurement": "EC50", "setting": "HEK293 [11]", "value": "> 20 µM (inactive)"}, {"measurement": "IC50", "setting": "HEK293 [12]", "value": "> 20 µM (inactive)"}, {"measurement": "EC50", "setting": "[13]", "value": "8.89 µM (active)"}]}
{"smiles": "COc1cccc2cc(-c3n[nH]c(=S)n3C)oc12", "values": [{"measurement": "IC50", "setting": "[14]", "value": "> 100 µM (inactive)"}, {"measurement": "IC50", "setting": "[15]", "value": "2.18 µM (active)"}]}
{"smiles": "Cn1ncc([N+](=O)[O-])c1C(=O)N/N=C/c1ccc(F)cc1", "values": [{"measurement": "EC50", "setting": "[1]", "value": "> 79.4 µM (not active)"}, {"measurement": "EC50", "setting": "[2]", "value": "> 79.4 µM (not active)"}, {"measurement": "EC50", "setting": "[3]", "value": "> 79.4 µM (not active)"}]}
{"smiles": "COc1cc(/C=N/n2c(S)nnc2-c2[nH]nc3c2CCC3)ccc1O", "values": [{"measurement": "IC50", "setting": "[14]", "value": "> 100 µM (inactive)"}, {"measurement": "IC50", "setting": "Large T antigen", "value": "7.5 µM (active)"}, {"measurement": "IC50", "setting": "[15]", "value": "1.56 µM (active)"}]}
